Key:
[1] = system: mutated and amplified genes (ctDNA) in blood; test: Molecular response by repeated Guardant 360 tests (ctDNA in blood); type: in vivo, human; conditions: individual patients; genes named in the cited cell or block
Procedure: Molecular response was determined by repeated Guardant 360 tests. […] Herein, blood samples were collected from patients and provided to Guardant for panel testing wherein a “panel” was defined as five or more ctDNA genes or gene mutation variants tested on the same day on the same member by the same rendering provider (i.e., Guardant).

[2] = system: Uncommon Cancers (Neoplastic Disorders); test: Patients with uncommon cancers treated with AS2-1 in combination with other drugs: response and survival; type: in vivo, human; conditions: GIST patient, before the combination of AS and sunitinib
Procedure: Patients diagnosed with 34 types of terminal cancer were treated with Antineoplaston AS2-1 (AS) therapy to reduce and/or abolish tumors and other signs of cancer and reduce and/or abolish expression of cancer-causing genes. In brief, patients admitted for treatment herein were diagnosed with terminal, Stage IV, cancers of varying types with multiple metastases and had failed standard-of-care regimens, except for a small number of patients who were treatment naive, but were not candidates for standard treatment because of very advanced disease and less than 6 months life expectancy. The estimated survival for these patients was from less than one to less than 6 months. The patients had radiological evidence of advanced metastatic cancer performed within 4 weeks from treatment start and genomic analysis, usually ordered at admission, including Guardant 360 blood test and/or Foundation One and/or Tempus blood or tissue test and/or SEMA4 tissue test. […]
At baseline, history taking, physical examination, necessary laboratory, genomic and radiological evaluations were performed. Two largest perpendicular diameters of the radiologically significant lesions were measured including MRI contrast-enhanced lesions in the brain and spinal cord. […] Mixed response was determined when there was a CR or PR of some lesions and PD of the other lesions. […]

Solubility in water = type: physicochemical

Structure (SMILES)	Genes affected by AS / molecular response: status of mutated or amplified genes in follow-up blood genomic analysis [1]	other results
C=CC(=O)Nc1cc(Nc2nccc(-c3cn(C)c4ccccc34)n2)c(OC)cc1N(C)CCN(C)C [osimertinib]	elimination of the two EGFR mutations	
Cc1ccc(NC(=O)c2ccc(CN3CCN(C)CC3)cc2)cc1Nc1nccc(-c2cccnc2)n1 [imatinib]		response to prior targeted therapy [2]: failed to respond
CCc1cc2c(cc1N1CCC(N3CCOCC3)CC1)C(C)(C)c1[nH]c3cc(C#N)ccc3c1C2=O [alectinib]	Elimination of the ALK fusion	
NC(=O)C(CCC(=O)[O-])NC(=O)Cc1ccccc1.[Na+] (stereo not shown) [Iso-PG, phenylacetylisoglutaminate sodium]		solubility in water (Solubility in water): soluble in water

Reference: patent US20230190694A1, “COMPOSITIONS FOR AND METHODS OF PRECISION CANCER TREATMENT” (priority 2021, published 2023)
